Test results taken from article PMC2829555, “The zebrafish genome encodes the largest vertebrate repertoire of functional aquaporins with dual paralogy and substrate specificities similar to mammals” (BMC Evolutionary Biology, 2010).

Experiments:
Experiment in all cases: radiolabelled solute uptake in cRNA-injected oocytes
Type in all cases: cell-based
Details in all cases: MBS buffer, 1 mM solute, 10 min, room temperature; labelled compound
DrAqp7 = molecular target: T1, DrAqp7 (Danio rerio, UniProt D3TZW4)
T1 construct: gene aqp7; full-length cDNA in pT7Ts, untagged, cRNA-injected Xenopus laevis oocytes
T1 sequence (D3TZW4 1-303): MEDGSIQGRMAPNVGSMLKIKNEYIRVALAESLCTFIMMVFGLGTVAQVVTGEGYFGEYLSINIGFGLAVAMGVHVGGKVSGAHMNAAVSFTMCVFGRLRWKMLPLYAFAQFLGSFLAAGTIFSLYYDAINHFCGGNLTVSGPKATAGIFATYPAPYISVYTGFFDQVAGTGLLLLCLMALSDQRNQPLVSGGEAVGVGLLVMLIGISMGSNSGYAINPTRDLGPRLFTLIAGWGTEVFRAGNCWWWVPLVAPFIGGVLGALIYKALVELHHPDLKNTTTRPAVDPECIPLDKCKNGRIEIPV

DrAqp9a = molecular target: T2, DrAqp9a (Danio rerio, UniProt Q498W2)
T2 construct: gene aqp9a; full-length cDNA in pT7Ts, untagged, cRNA-injected Xenopus laevis oocytes
T2 sequence (Q498W2 1-294): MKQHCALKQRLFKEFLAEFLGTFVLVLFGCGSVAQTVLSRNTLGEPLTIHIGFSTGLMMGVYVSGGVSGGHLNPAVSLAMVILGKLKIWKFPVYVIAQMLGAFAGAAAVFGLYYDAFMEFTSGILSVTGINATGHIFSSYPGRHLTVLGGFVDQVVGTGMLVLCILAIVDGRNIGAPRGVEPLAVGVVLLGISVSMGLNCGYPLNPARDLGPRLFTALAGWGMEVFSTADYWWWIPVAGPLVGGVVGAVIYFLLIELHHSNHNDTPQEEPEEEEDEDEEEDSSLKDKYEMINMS

DrAqp10b = molecular target: T3, DrAqp10b (Danio rerio, UniProt Q1L8T0)
T3 construct: gene aqp10b; full-length cDNA in pT7Ts, untagged, cRNA-injected Xenopus laevis oocytes
T3 sequence (Q1L8T0 1-276): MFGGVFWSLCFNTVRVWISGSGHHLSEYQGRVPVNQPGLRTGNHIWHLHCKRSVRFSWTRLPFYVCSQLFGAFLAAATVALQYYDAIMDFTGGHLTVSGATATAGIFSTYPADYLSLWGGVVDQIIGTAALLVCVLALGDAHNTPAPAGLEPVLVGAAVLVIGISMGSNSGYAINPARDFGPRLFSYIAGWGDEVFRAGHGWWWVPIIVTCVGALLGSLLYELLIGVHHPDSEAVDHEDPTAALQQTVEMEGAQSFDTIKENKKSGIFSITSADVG

DrAqp9b = molecular target: T4, DrAqp9b (Danio rerio, UniProt D5FFZ1)
T4 construct: gene aqp9b; full-length cDNA in pT7Ts, untagged, cRNA-injected Xenopus laevis oocytes; FJ655387 is printed for both 9a and 9b
T4 sequence (D5FFZ1 1-291): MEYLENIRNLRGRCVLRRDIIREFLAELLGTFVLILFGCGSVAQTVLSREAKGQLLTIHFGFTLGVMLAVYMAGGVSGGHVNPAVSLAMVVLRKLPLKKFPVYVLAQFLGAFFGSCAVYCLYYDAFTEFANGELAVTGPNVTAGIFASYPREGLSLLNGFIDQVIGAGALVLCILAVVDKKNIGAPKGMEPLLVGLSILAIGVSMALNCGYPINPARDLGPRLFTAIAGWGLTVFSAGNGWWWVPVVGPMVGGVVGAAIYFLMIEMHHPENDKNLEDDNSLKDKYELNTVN

DrAqp3a = molecular target: T5, DrAqp3a (Danio rerio, UniProt Q803U6)
T5 construct: gene aqp3a; full-length cDNA in pT7Ts, untagged, cRNA-injected Xenopus laevis oocytes
T5 sequence (Q803U6 1-296): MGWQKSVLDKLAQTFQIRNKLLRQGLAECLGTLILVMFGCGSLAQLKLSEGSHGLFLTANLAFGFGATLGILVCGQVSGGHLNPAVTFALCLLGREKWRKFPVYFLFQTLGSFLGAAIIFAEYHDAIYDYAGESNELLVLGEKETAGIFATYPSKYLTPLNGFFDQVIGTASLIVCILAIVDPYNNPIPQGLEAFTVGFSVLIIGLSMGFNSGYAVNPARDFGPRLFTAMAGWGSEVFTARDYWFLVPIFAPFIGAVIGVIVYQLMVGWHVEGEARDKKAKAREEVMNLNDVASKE

DrAqp3b = molecular target: T6, DrAqp3b (Danio rerio, UniProt D3TI80)
T6 construct: gene aqp3b; full-length cDNA in pT7Ts, untagged, cRNA-injected Xenopus laevis oocytes
T6 sequence (D3TI80 1-299): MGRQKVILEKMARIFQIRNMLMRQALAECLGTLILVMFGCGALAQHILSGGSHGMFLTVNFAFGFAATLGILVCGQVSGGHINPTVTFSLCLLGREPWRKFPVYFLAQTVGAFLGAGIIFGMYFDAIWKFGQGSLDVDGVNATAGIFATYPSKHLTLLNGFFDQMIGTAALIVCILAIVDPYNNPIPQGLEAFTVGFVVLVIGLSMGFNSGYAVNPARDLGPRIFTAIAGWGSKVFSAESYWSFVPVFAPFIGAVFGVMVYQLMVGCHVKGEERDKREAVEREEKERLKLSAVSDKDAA

DrAqp10a = molecular target: T7, DrAqp10a (Danio rerio, UniProt A0A8M1N0C8)
T7 construct: gene aqp10a; full-length cDNA in pT7Ts, untagged, cRNA-injected Xenopus laevis oocytes
T7 sequence (A0A8M1N0C8 1-293): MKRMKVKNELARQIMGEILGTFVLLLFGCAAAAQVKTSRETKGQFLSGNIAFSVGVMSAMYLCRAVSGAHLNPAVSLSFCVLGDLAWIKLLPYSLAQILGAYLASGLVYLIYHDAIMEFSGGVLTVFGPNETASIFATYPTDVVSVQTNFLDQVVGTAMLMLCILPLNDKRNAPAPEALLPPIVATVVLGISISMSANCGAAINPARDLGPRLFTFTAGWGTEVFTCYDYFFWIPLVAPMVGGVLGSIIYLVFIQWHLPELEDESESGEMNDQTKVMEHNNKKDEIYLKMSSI

DrAqp8aa = molecular target: T8, DrAqp8aa (Danio rerio, UniProt Q66I64)
T8 construct: gene aqp8a.1; full-length cDNA in pT7Ts, untagged, cRNA-injected Xenopus laevis oocytes
T8 sequence (Q66I64 1-260): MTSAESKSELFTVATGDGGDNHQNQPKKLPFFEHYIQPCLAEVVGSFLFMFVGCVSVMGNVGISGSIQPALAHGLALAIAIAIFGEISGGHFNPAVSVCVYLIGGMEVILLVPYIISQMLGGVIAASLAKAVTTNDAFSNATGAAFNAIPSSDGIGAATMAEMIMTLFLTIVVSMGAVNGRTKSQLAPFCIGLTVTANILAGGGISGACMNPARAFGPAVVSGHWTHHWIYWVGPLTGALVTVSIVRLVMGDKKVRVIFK

DrAqp8ab = molecular target: T9, DrAqp8ab (Danio rerio, UniProt A0A8N1TQ94)
T9 construct: gene aqp8a.2; full-length cDNA in pT7Ts, untagged, cRNA-injected Xenopus laevis oocytes
T9 sequence (A0A8N1TQ94 1-257): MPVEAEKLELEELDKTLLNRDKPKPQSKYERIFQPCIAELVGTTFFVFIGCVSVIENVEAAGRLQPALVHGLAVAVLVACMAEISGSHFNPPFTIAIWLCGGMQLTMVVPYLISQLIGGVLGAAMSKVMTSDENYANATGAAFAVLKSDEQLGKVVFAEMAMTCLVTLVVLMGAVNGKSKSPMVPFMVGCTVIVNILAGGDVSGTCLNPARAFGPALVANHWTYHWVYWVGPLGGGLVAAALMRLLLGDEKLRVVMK

| Structure (SMILES) | radiolabelled solute uptake in cRNA-injected oocytes (DrAqp7) | radiolabelled solute uptake in cRNA-injected oocytes (DrAqp9a) | radiolabelled solute uptake in cRNA-injected oocytes (DrAqp10b) | radiolabelled solute uptake in cRNA-injected oocytes (DrAqp9b) | radiolabelled solute uptake in cRNA-injected oocytes (DrAqp3a) | radiolabelled solute uptake in cRNA-injected oocytes (DrAqp3b) | radiolabelled solute uptake in cRNA-injected oocytes (DrAqp10a) | radiolabelled solute uptake in cRNA-injected oocytes (DrAqp8aa) | radiolabelled solute uptake in cRNA-injected oocytes (DrAqp8ab) |
| --- | --- | --- | --- | --- | --- | --- | --- | --- | --- |
| OCC(O)CO [glycerol] | draqp3a, -3b, -7, -9a, -9b, -10a and -10b were also permeable to glycerol and urea | draqp3a, -3b, -7, -9a, -9b, -10a and -10b were also permeable to glycerol and urea | draqp3a, -3b, -7, -9a, -9b, -10a and -10b were also permeable to glycerol and urea | draqp3a, -3b, -7, -9a, -9b, -10a and -10b were also permeable to glycerol and urea | draqp3a, -3b, -7, -9a, -9b, -10a and -10b were also permeable to glycerol and urea | draqp3a, -3b, -7, -9a, -9b, -10a and -10b were also permeable to glycerol and urea | draqp3a, -3b, -7, -9a, -9b, -10a and -10b were also permeable to glycerol and urea |  |  |
| NC(N)=O [urea] | draqp3a, -3b, -7, -9a, -9b, -10a and -10b were also permeable to glycerol and urea | draqp3a, -3b, -7, -9a, -9b, -10a and -10b were also permeable to glycerol and urea | in the case of draqp10b urea permeability was low | draqp3a, -3b, -7, -9a, -9b, -10a and -10b were also permeable to glycerol and urea | draqp3a, -3b, -7, -9a, -9b, -10a and -10b were also permeable to glycerol and urea | draqp3a, -3b, -7, -9a, -9b, -10a and -10b were also permeable to glycerol and urea | draqp3a, -3b, -7, -9a, -9b, -10a and -10b were also permeable to glycerol and urea | Oocytes expressing draqp8aa or -8ab were permeable to water and urea, but not glycerol | Oocytes expressing draqp8aa or -8ab were permeable to water and urea, but not glycerol |
